Reference: patent US20090191173A1, “Induction Of Neurogenesis And Stem Cell Therapy In Combination With Copolymer 1” (priority 2004, published 2009)

Key:
EAE mice [1] = test system: EAE mice
Method: GA treatment was applied by 5-8 consecutive daily subcutaneous injections (2 mg/mouse) in different stages of disease [i.e., (1) starting immediately after EAE induction (prevention treatment), (2) starting after appearance of disease manifestations at day 20 (suppression treatment), or (3) starting during the chronic phase 45 days after induction (delayed suppression).
(xl) Perfusion. Animals were deeply anesthetized with Nembutal and perfused transcardially with 2.5% paraformaldehyde. Brains were removed, postfixed in 1% paraformaldehyde and cryoprotected with 15% sucrose solution in PBS. Free-floating sections (16 μm thick) were cut coronally or sagitaly with a sliding microtome (Leica SM 2000r) through the entire brain and collected serially in PBS.
(xli) Immunohistochemistry. To detect BrdU-incorporated cells, sections were denatured in 2M HCl in PBS at 37° C. for 30 min and then neutralized with 0.1M borate buffer (pH 8.5) for 10 min at room temperature. To detect specific cell types, sections were pre-incubated in PBS solution containing 20% serum and 0.5% Triton-X-100 for 1 h, and then incubated overnight at room temperature with primary antibodies. The following primary antibodies were used: goat anti-doublecortin (DCX) C-18 (1:200, Santa Cruz Biotechnology, Santa Cruz, Calif.), mouse anti-NeuN (1:300, Chemicon, Temecula, Calif.), mouse anti-GFAP (1:100, Pharmingen, San Jose, Calif.), rabbit anti-phospho-histone (1:200, Upstate Biotechnology, Charlottesville, Va.), rat anti-BrdU (1:200, Harlan, Indianapolis, Ind.), rat anti-CD11b (1:50, Pharmingen) and chicken anti-BDNF (1:50, Promega, Madison, Wis.). […]
(xlii) Microscopy. Stained sections were examined and photographed by a confocal microscope (Axiovert 100M; Zeiss, Oberkochen, Germany), or by a fluorescence microscope (E600; Nikon, Tokyo, Japan), equipped with Plan Fluor objectives connected to CCD camera (DMX1200F, Nikon). Digital images were collected and analyzed using Image Pro+software. […]

APP/PS1 Tg mice [2] = experiment: Morris water maze (MWM) in APP/PS1 double-transgenic AD mice; format: in vivo, mouse; settings: GA (TV-5010) s.c. vaccination, tested five weeks after first injection
EAE mice [3] = experiment: Proliferation, migration and differentiation of neuronal progenitor cells in EAE mice (BrdU, DCX, NeuN); format: in vivo, mouse
Method: (xxxix) BrdU. 5-Bromo-2′-deoxyuridine (BrdU, Sigma), a thymidine analog incorporating into the DNA of dividing cells, was injected intraperitoneally (50 mg/kg), either concurrently with GA treatment (once each day), or immediately after completion of GA injections (twice each day).
(xli) Immunohistochemistry. […] Control slides were incubated with secondary antibody alone.
(xliii) Quantification. […] Quantification was performed in coronal sections, in the SVZ starting at the level of the medial septum and 640 μm backward, and in the hippocampal DG (in both blades for BrdU/DCX or in the upper blade for DCX) through its septotemporal axis. Quantification in the RMS was done on sagital sections starting at 1 mm from the median line of the brain and 640 μm laterally. The Results for each brain structure were averaged from 8 unilateral levels per mouse (80 μm apart, 3-4 mice in each treatment group) and are expressed as change fold from naive controls. Quantification of BrdU/NeuN double positive cells in the cortex was performed in areas of 0.15 mm^2, selected at random (10 sections counted/mouse, 3 mice in each treatment group).
(xliv) Statistical analysis. For BrdU and DCX analysis, the mean±SEM (averaged from 8 unilateral levels per mouse, 3-4 mice in each treatment group) was subjected to one-way analysis of variance (ANOVA), followed by Fishers' least significant difference (LSD) at comparison-wise error rate of 0.05, where appropriate. Since control values for BrdU incorporation were reduced as a function of time, results were expressed as change fold from naive controls injected concurrently with BrdU. The number of BrdU/NeuN double-positive cells in the cortex was averaged from 10 sections per mouse (3 mice in each treatment group) and expressed as cells per mm^3.

EAE mice [4] = experiment: Clinical manifestations of MOG 35-55-induced EAE; format: in vivo; settings: 5-8 daily s.c. injections 2 mg/mouse; prevention, suppression or delayed suppression
APP/PS1 Tg mice [5] = experiment: Hippocampal immunohistochemistry in APP/PS1 Tg mice (Aβ plaques, microglia, NeuN, BrdU, DCX); format: in vivo, mouse
Method: (xxii) Glatiramer acetate vaccination. Each mouse was subcutaneously injected five times with a total of 100 μg of glatiramer acetate (GA (TV-5010), MW 13.5-18.5 kDa, average 16 kDa, Teva Pharmaceutical Industries Ltd., Petach Tikva, Israel), emulsified in 200 μl PBS×1, from experimental day 0 until day 24, twice during the first week and once a week thereafter.
(xxiv) Administration of BrdU and tissue preparation. BrdU was dissolved by sonication in PBS and injected i.p. into each mouse (50 mg/kg body weight; 1.25 mg BrdU in 200 μl PBS×1). Starting from experimental day 22 after the first GA vaccination, BrdU was injected i.p. twice daily, every 12 h for 2.5 days, to label proliferating cells. Three weeks after the first BrdU injection the mice were deeply anesthetized and perfused transcardially, first with PBS and then with 4% paraformaldehyde. The whole brain was removed, postfixed overnight, and then equilibrated in phosphate-buffered 30% sucrose. Free-floating 30-μm sections were collected on a freezing microtome (Leica SM2000R) and stored at 4° C. prior to immunohistochemistry.
For immunohistochemistry, tissue sections were treated with a permeabilization/blocking solution containing 10% FCS, 2% bovine serum albumin, 1% glycine, and 0.05% Triton X-100 (Sigma-Aldrich, St. Louis). Tissue sections were stained overnight at 4° C. with specified combinations of the following primary antibodies: rat anti-BrdU (1:200; Oxford Biotechnology, Kidlington, Oxfordshire, UK), goat anti-DCX [doublecortin] (1:400; Santa Cruz Biotechnology), and mouse anti-NeuN [neuronal nuclear protein] (1:200; Chemicon, Temecula, Calif.). Secondary antibodies were FITC-conjugated donkey anti-goat, Cy-3-conjugated donkey anti-mouse, and Cy-3- or Cy-5-conjugated donkey anti-rat (1:200; Jackson ImmunoResearch, West Grove, Pa.). For labeling of microglia we used either CD11b (MAC1; 1:50; BD-Pharmingen) or FITC-conjugated Bandeiraea simplicifolia isolectin B4 (IB4, 1:50; Sigma-Aldrich, Rehovot). To detect expression of cell-surface MHC-II proteins we used anti-MHC-II Abs (rat, clone IBL-5/22; 1:50; Chemicon, Temecula, Calif.). To detect expression of human Aβ we used anti-Aβ (human amino-acid residues 1-17) (mouse, clone 6E10, Chemicon, Temecula, Calif.). Expression of IGF-I was detected by goat anti-IGF-I Abs (1:20; R&D Systems). Expression of TNF-α was detected by goat anti-TNF-α Abs (1:100; R&D Systems). T cells were detected with anti-CD3 polyclonal Abs (rabbit, 1:100; DakoCytomation, Calif.). Propidium iodide (1 μg/ml; Molecular Probes, Invitrogen, Carlsbad, Calif.) was used for nuclear staining.
For in-vivo experiments, the number of Aβ^+ plaques and CD11b^+/IB-4^+ microglia in the hippocampus were counted at 300-μm intervals from 6-8 coronal sections (30 μm) from each mouse. Neurogenesis in the DG was evaluated by counting of premature neurons (DCX^+), proliferating cells (BrdU^+), and newly formed mature neurons (BrdU^+/NeuN^+) in six coronal sections (30 μm) from each mouse. Specificity of BrdU^+/NeuN^+ co-expression was assayed using the confocal microscope (LSM 510) in optical sections at 1-μm intervals/. Cell counts, numbers of Aβ^+ plaques, plaque areas, and intensity of NeuN staining per unit area in the DG were evaluated automatically using Image-Pro Plus 4.5 software (Media Cybernetics).

[6] = EAE+GA mice, one month after completion of GA treatment
[7] = GA vaccinated vs untreated Tg mice

## glatiramer acetate [GA]
EAE mice [1]; EAE+GA vs EAE mice
  MAC-1 expression (microglial activation): significantly reduced
EAE mice [1]; EAE+GA vs EAE mice, prevention or suppression treatment
  neuronal damage in brain: considerably less damage
EAE mice [1]; mouse, in vivo
  neuronal malformations or perivascular infiltrations: did not find neuronal malformations or perivascular infiltrations
APP/PS1 Tg mice [2]
  MWM performance (spatial learning/memory): superior to that of the untreated Tg mice
EAE mice [3]; EAE mice treated with GA
  migration of neuronal progenitors outside the RMS: migration into a region corresponding to the lateral cortical stream (LCS)
EAE mice [3]; EAE+GA mice
  neuronal proliferation in the hippocampus (BrdU incorporation, DCX expression): increased proliferation
EAE mice [3]; EAE+GA mice, nucleus accumbens and hippocampus
  BDNF expression by migrating DCX+ cells: manifested extensive expression of BDNF
EAE mice [3]; [6]
  BrdU+/NeuN+ cells as share of all NeuN+ cells in the cortex: 1.3%
  BrdU+/NeuN+ double-labeled cells in the cortex: 128±46 /mm^3
EAE mice [3]; EAE+GA vs EAE mice
  progenitors migrating to lesions: much higher
EAE mice [3]; EAE+GA vs untreated EAE mice and controls
  neuronal proliferation in the SVZ: augmented neuronal proliferation in the SVZ
EAE mice [3]; GA injection to naive mice (without EAE)
  BrdU or DCX expression in SVZ and DG: did not result in significant elevation
EAE mice [3]; GA on days 20-25 (suppression)
  BrdU expression in the RMS, increase over EAE mice: 2.2 fold
  BrdU expression in the RMS, increase over control: 7.8 fold
  DCX expression in the RMS, increase over EAE mice: 1.6 fold
  DCX expression in the RMS, increase over control: 2.6 fold
EAE mice [3]; injection of GA alone (no EAE)
  mobilization of progenitors into the RMS: enhanced mobilization of progenitors into the RMS, but to a lower extent
EAE mice [3]; one month after completion of GA treatment
  increase of new neurons in the cortex over EAE mice: 2.6 fold
EAE mice [3]; prevention treatment
  DCX expression in the SVZ, elevation over EAE and control: 4 fold
EAE mice [4]
  clinical manifestations of EAE: ameliorated the clinical manifestations of EAE regardless of the stage in which it was administered
APP/PS1 Tg mice [5]; GA (TV-5010) vaccinated vs untreated Tg mice, 6 weeks later
  number of Aβ plaques: significantly fewer plaques
APP/PS1 Tg mice [5]; [7]
  BrdU+ cells in the dentate gyrus: significantly more BrdU^+ cells
  CD11b+ microglia: significantly fewer CD11b^+ microglia
  area occupied by the plaques: significantly smaller
  staining for NeuN: significantly more intense staining for NeuN
APP/PS1 Tg mice [5]; GA-vaccinated Tg mice
  MHC-II expression by microglia: most of the microglia adjacent to residual Aβ^+ plaques expressed MHC-II
APP/PS1 Tg mice [5]; relative to non-Tg littermates
  DCX+ cells in the DG: slightly but significantly more
